From the NIST ThermoML archive (doi:10.1021/acs.jced.9b00381) come the findings set out here.

± gives the expanded uncertainty stated by the source.

The conditions of series [1]: Crystal; DSC.
Series [2] is described as follows: Molar enthalpy of transition or fusion. The conditions noted are these: Crystal; DSC.

Take `Fc1c(I)c(F)c(I)c(F)c1I` [1,3,5-trifluoro-2,4,6-triiodobenzene]: the Triple point temperature in series [1] worked out at 424.01 ± 1 K. In series [2], the “Molar enthalpy of transition or fusion” value worked out at 3.23 ± 0.105 kcal/mol.
